Experimental data as given in PubChem BioAssay (NCI).
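Exposure lasted 48 hours, with cells grown in 96-well plates and compounds tested at five concentrations. TGI: total growth inhibition.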

Test system: SN12K1 renal
Assay: NCI anticancer screen, dose series, 48 h

Row | Compound | TGI [µM]
1 | OCC1OC(n2cnc3c2NC=NC[C@H]3O)CC1O (some centres not stated) | 467
2 | COC1=C2C[C@@H](C)C[C@@H](OC)[C@@H](O)[C@H](C)/C=C(\C)[C@@H](OC(N)=O)[C@H](OC)/C=C\C=C(/C)C(=O)NC(=CC1=O)C2=O | 2.51
